Laboratory results from PubChem BioAssay (NCI).
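1) Cells in 96-well plates. 2) Compound, 48 h, 5 concentrations. 3) Linear interpolation between surrounding doses. 4) Unreached endpoint = highest concentration. TGI: total growth inhibition.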

Experiments:
Assay in all cases: NCI tumour cell line growth inhibition, 48 h
[1] = tested on: DU-145 prostate
[2] = tested on: HOP-62 NSCLC
[3] = tested on: HOP-92 NSCLC
[4] = tested on: HT29 colon
[5] = tested on: MCF7 breast
[6] = tested on: MDA-MB-231 breast
[7] = tested on: MDA-MB-435
[8] = tested on: NCI-H460 lung
[9] = tested on: OVCAR-3 ovarian
[10] = tested on: OVCAR-4 ovarian
[11] = tested on: OVCAR-8 ovarian
[12] = tested on: SF-539 CNS
[13] = tested on: SK-MEL-2 melanoma
[14] = tested on: T-47D breast
[15] = tested on: UO-31 renal

CC(=O)NC1C(O)C(O)C(CO)OC1n1ncc(=O)[nH]c1=O (configuration not stated)
TGI [1]: > 100 µM | TGI [2]: > 100 µM | TGI [3]: > 100 µM | TGI [4]: > 100 µM | TGI [5]: > 100 µM | TGI [6]: > 100 µM | TGI [7]: > 100 µM | TGI [8]: > 100 µM | TGI [9]: > 100 µM | TGI [10]: > 100 µM | TGI [11]: > 100 µM | TGI [12]: > 100 µM | TGI [13]: > 100 µM | TGI [14]: > 100 µM | TGI [15]: > 100 µM

COc1ccc(NC(C)=O)cc1C1CCC(=O)N1 (configuration not stated)
TGI [1]: > 100 µM | TGI [2]: > 100 µM | TGI [3]: > 100 µM | TGI [4]: > 100 µM | TGI [5]: > 100 µM | TGI [6]: > 100 µM | TGI [7]: > 100 µM | TGI [8]: > 100 µM | TGI [9]: > 100 µM | TGI [10]: > 100 µM | TGI [11]: > 100 µM | TGI [12]: > 100 µM | TGI [13]: > 100 µM | TGI [14]: > 100 µM | TGI [15]: > 100 µM

CN(C)CCCCN1c2ccccc2Sc2cc(N=[N+]=[N-])ccc21
TGI [1]: 3.8 µM | TGI [2]: 5.22 µM | TGI [3]: 10.5 µM | TGI [4]: 2.9 µM | TGI [5]: 3.32 µM | TGI [6]: 3.12 µM | TGI [7]: 3.09 µM | TGI [8]: 3.83 µM | TGI [9]: 3.59 µM | TGI [10]: 6.35 µM | TGI [11]: 3.38 µM | TGI [12]: 3.4 µM | TGI [13]: 3.4 µM | TGI [14]: 4.86 µM | TGI [15]: 3.66 µM

COc1c2ccccc2c(OC)c2nc(C)ccc12
TGI [1]: > 100 µM | TGI [2]: > 100 µM | TGI [3]: > 100 µM | TGI [4]: > 100 µM | TGI [5]: > 100 µM | TGI [6]: > 100 µM | TGI [7]: > 100 µM | TGI [8]: > 100 µM | TGI [9]: > 100 µM | TGI [10]: > 100 µM | TGI [11]: > 100 µM | TGI [12]: > 100 µM | TGI [13]: > 100 µM | TGI [14]: > 100 µM | TGI [15]: > 100 µM

O=[N+]([O-])c1ccc2[nH]ncc2c1Cl
TGI [1]: 32.2 µM | TGI [2]: > 100 µM | TGI [3]: > 100 µM | TGI [4]: 77.4 µM | TGI [5]: > 100 µM | TGI [6]: 35 µM | TGI [7]: > 100 µM | TGI [8]: > 100 µM | TGI [9]: > 100 µM | TGI [10]: 85.5 µM | TGI [11]: > 100 µM | TGI [12]: > 100 µM | TGI [13]: 40.4 µM | TGI [14]: 44.4 µM

CCCCCC(CO)C(O)(C(F)(F)F)C(F)(F)F (configuration not stated)
TGI [1]: > 10 µM | TGI [2]: > 10 µM | TGI [3]: > 10 µM | TGI [4]: > 10 µM | TGI [5]: > 10 µM | TGI [6]: > 10 µM | TGI [7]: > 10 µM | TGI [8]: > 10 µM | TGI [9]: > 10 µM | TGI [10]: > 10 µM | TGI [11]: > 10 µM | TGI [12]: > 10 µM | TGI [13]: > 10 µM | TGI [14]: > 10 µM

CC/C=C/C(=O)CC(O)(C(F)(F)F)C(F)(F)F
TGI [1]: > 100 µM | TGI [2]: > 100 µM | TGI [3]: 86.3 µM | TGI [4]: > 100 µM | TGI [5]: > 100 µM | TGI [6]: > 100 µM | TGI [7]: > 100 µM | TGI [8]: > 100 µM | TGI [10]: > 100 µM | TGI [11]: > 100 µM | TGI [12]: > 100 µM | TGI [14]: > 100 µM | TGI [15]: > 100 µM

CC(=O)OC1COC(n2c(-c3ccc(Cl)cc3)cc(-c3ccccc3)c(C#N)c2=S)C(OC(C)=O)C1OC(C)=O (configuration not stated)
TGI [1]: 41.6 µM | TGI [2]: 28.4 µM | TGI [3]: 28.8 µM | TGI [4]: > 64.6 µM | TGI [5]: > 100 µM | TGI [6]: 9.38 µM | TGI [7]: > 62.4 µM | TGI [8]: > 66.8 µM | TGI [9]: 18.2 µM | TGI [10]: 11.1 µM | TGI [11]: 21.6 µM | TGI [12]: 15.2 µM | TGI [13]: 29.4 µM | TGI [14]: 54 µM | TGI [15]: 38.4 µM

O=c1[nH]nc(Cc2ccccc2)n1/N=C/c1ccccc1Cl
TGI [1]: > 100 µM | TGI [3]: > 100 µM | TGI [4]: > 100 µM | TGI [5]: > 100 µM | TGI [6]: > 100 µM | TGI [7]: > 100 µM | TGI [8]: > 100 µM | TGI [9]: > 100 µM | TGI [10]: > 100 µM | TGI [11]: > 100 µM | TGI [12]: > 100 µM | TGI [13]: > 100 µM | TGI [14]: > 100 µM | TGI [15]: > 100 µM

Cc1cc(NCCCCCCCCCC[n+]2c(C)cc(N)c3ccccc32)c2ccccc2n1
TGI [1]: 22.3 µM | TGI [2]: 30.1 µM | TGI [3]: 7.62 µM | TGI [4]: > 100 µM | TGI [5]: > 100 µM | TGI [6]: 5.61 µM | TGI [7]: 5.86 µM | TGI [9]: 65.9 µM | TGI [10]: > 100 µM | TGI [11]: 15.8 µM | TGI [12]: > 100 µM | TGI [13]: 7.29 µM | TGI [14]: 12.3 µM | TGI [15]: 26.4 µM

CCSC1=N/C(=C\c2ccco2)C(Cl)=N1
TGI [1]: > 100 µM | TGI [2]: > 100 µM | TGI [3]: > 100 µM | TGI [4]: > 100 µM | TGI [5]: > 100 µM | TGI [6]: > 100 µM | TGI [7]: > 100 µM | TGI [8]: > 100 µM | TGI [9]: > 100 µM | TGI [11]: > 100 µM | TGI [12]: > 100 µM | TGI [13]: > 100 µM | TGI [14]: > 100 µM | TGI [15]: > 100 µM

Cc1ccc(S(=O)(=O)NC2C(=O)c3ccccc3C(=O)C2n2cnc3ccccc32)cc1 (configuration not stated)
TGI [1]: > 100 µM | TGI [2]: > 100 µM | TGI [3]: > 100 µM | TGI [4]: > 100 µM | TGI [5]: > 100 µM | TGI [6]: > 100 µM | TGI [7]: 36.4 µM | TGI [8]: 84.3 µM | TGI [9]: 15.4 µM | TGI [10]: 26.1 µM | TGI [11]: > 100 µM | TGI [12]: 62.6 µM | TGI [13]: 51.7 µM | TGI [14]: > 100 µM

Cc1ccc(Nc2nc(N)nc3c2ncn3C2OC(CO)C(O)C2O)cc1 (configuration not stated)
TGI [1]: > 100 µM | TGI [2]: > 100 µM | TGI [3]: > 100 µM | TGI [4]: > 100 µM | TGI [5]: > 100 µM | TGI [6]: > 100 µM | TGI [7]: > 100 µM | TGI [9]: > 100 µM | TGI [10]: > 100 µM | TGI [11]: > 100 µM | TGI [12]: > 100 µM | TGI [13]: > 100 µM | TGI [14]: > 100 µM | TGI [15]: > 100 µM

COC1=C(N2CC2)C(=O)c2nc3n(c2C1=O)CCC3
TGI [1]: 1.36 µM | TGI [2]: 2.34 µM | TGI [3]: 7.74 µM | TGI [4]: 1.57 µM | TGI [5]: 4.08 µM | TGI [6]: 6.28 µM | TGI [7]: 3.32 µM | TGI [8]: 2.42 µM | TGI [9]: 10.7 µM | TGI [10]: 0.526 µM | TGI [11]: 4.7 µM | TGI [12]: 7.79 µM | TGI [14]: 4.15 µM

CNn1c(C)n[nH]c1=O
TGI [1]: > 100 µM | TGI [2]: > 100 µM | TGI [3]: > 100 µM | TGI [5]: > 100 µM | TGI [6]: > 100 µM | TGI [7]: > 100 µM | TGI [8]: > 100 µM | TGI [9]: > 100 µM | TGI [10]: > 100 µM | TGI [11]: > 100 µM | TGI [12]: > 100 µM | TGI [13]: > 100 µM | TGI [14]: > 100 µM | TGI [15]: > 100 µM

COc1ccc(C(c2c[nH]c3ccc(Br)cc23)c2c[nH]c3ccc(Br)cc23)cc1
TGI [1]: 1.38 µM | TGI [2]: 1.22 µM | TGI [3]: 2.07 µM | TGI [4]: 1.03 µM | TGI [5]: 0.765 µM | TGI [6]: 0.705 µM | TGI [7]: 0.42 µM | TGI [8]: 0.361 µM | TGI [9]: 0.52 µM | TGI [10]: 1.25 µM | TGI [12]: 2.06 µM | TGI [13]: 1.22 µM | TGI [14]: 2.67 µM | TGI [15]: 1.69 µM
